In one assay the test system is HCV replicon 2B. The assay is described as follows: Cell-based HCV Replicon Assay A, replicon 2B. The following applies: for IC50: Hepatitis C virus, read-out: 2B IC50 (nM), replicon 2B. The method, then: (§1) To measure cell-based anti-HCV activity of compounds of the present invention, two complimentary assays were employed using various replicons. In the first assay (“Replicon Assay A”), replicon cells were seeded at 2000 cells/well in 384-well 384-well flat bottom tissue culture treated clear bottom plate (Corning 3707) in the presence of the test compound. Various concentrations of test compound, typically in 10 serial dilutions, were added to the assay mixture, with the starting concentration ranging from 333.3 nM to […]. The final concentration of DMSO was 0.5%. Fetal bovine serum was 5%, in the assay media. Cells were harvested on day 3 by removing media and washing the cells with a suitable wash buffer. The cells are lysed with the addition of 1× Qiagen lysis buffer (Cat #1062731). The replicon RNA level was measured using real time PCR (TaqMan® EZ RT-PCR, Applied Biosystems 403028) with the following primers and probes: […]
(§2) Cyclophilin RNA was used as endogenous control and was amplified in the same reaction as NS5B (multiplex PCR). The real-time RT-PCR reactions were run on ABI PRISM 7900HT Sequence Detection System using the following program: 50° C. for 2 minutes, 60° C. for 30 minutes, 95° C. for 5 minutes, 40 cycles of 94° C. for 20 sec, 55° C. for 1 minutes.
(§3) The amount of HCV replicon RNA per cell is quantified using a linear regression curve for a known nanogram (ng) amount of HCV replicon total RNA. This is established by plotting the Cycle Threshold values (Ct) from the Neo probe and primer set versus the log (ng) for each HCV replicon total RNA standard. The amount of HCV RNA for each replicon sample is calculated by taking the sample's Ct value, minus the line intercept, divided by the slope of the line. Similarly, the amount of Cyclophilin mRNA per cell is also quantified using a linear regression curve for a known nanogram (ng) amount of HCV replicon total RNA. Again, this is established by plotting the Cycle Threshold values (Ct) from the Cyclophilin probe and primer set versus the log (ng) for each HCV replicon total RNA standard.
(§4) Data was obtained for various compounds of the present invention using the methods described in the Example above, and is presented in the table immediately below. Data for replicons 1A, 1AY93H and 2B were obtained using Replicon Assay A and data for replicons 1AQ30D and 1B were obtained using Replicon Assay B.

Another assay relates to HCV replicon 1A. The assay is described as follows: Cell-based HCV Replicon Assay A, replicon 1A. The procedure: as §1, §2, §3, §4
For the next assay, the system named is HCV replicon 1AY93H. The assay is described as follows: Cell-based HCV Replicon Assay A, replicon 1AY93H. The conditions noted are these: read-out: 1A Y93H IC50, replicon 1AY93H. The procedure: as §1, §2, §3, §4

Structures are written as SMILES. pIC50: −log10 of the molar value. Where two headings read alike, the source gives them in different places. A value given as a limit tells only on which side of the number the result lay.

With `COC(=O)NC(C(=O)N1[C@@H]2C[C@@H]2C[C@H]1c1ncc(-c2ccc3c(c2)cc2n3C(c3cnc(C4CC4)s3)Oc3cc(-c4cnc([C@@H]5CCCN5C(=O)[C@@H](NC(=O)OC)C(C)C)[nH]4)cc(C)c3-2)[nH]1)C1CCOC(C)(C)C1` (single isomer, unassigned) [Compound 227], the IC50 in the assay with HCV replicon 2B stood at 0.016 nM.

As for `COC(=O)N[C@H](C(=O)N1CCC[C@H]1c1ncc(-c2cc(F)c3c(c2)OC(c2nnc(C)s2)n2c-3cc3cc(-c4cnc([C@@H]5CCCN5C(=O)[C@@H](NC(=O)OC)C(C)C)[nH]4)ccc32)[nH]1)C(C)C` (single isomer, unassigned) [Compound 6], the IC50 with HCV replicon 2B came to 1.75 nM.

`COC(=O)N[C@H](C(=O)N1CCC[C@H]1c1ncc(-c2cc(F)c3c(c2)OC(c2cnc(-c4ccc(C)o4)s2)n2c-3cc3cc(-c4cnc([C@@H]5CCCN5C(=O)[C@@H](NC(=O)OC)C(C)C)[nH]4)ccc32)[nH]1)C(C)C` (single isomer, unassigned) [Compound 412]: the IC50 with HCV replicon 2B amounted to 0.12 nM.

In the case of `COC(=O)N[C@H](C(=O)N1CCC[C@H]1c1ncc(-c2cc(F)c3c(c2)OC(c2nc4ccccc4s2)n2c-3cc3cc(-c4cnc([C@@H]5CCCN5C(=O)[C@@H](NC(=O)OC)C(C)C)[nH]4)ccc32)[nH]1)C(C)C` (single isomer, unassigned) [Compound 400], the pIC50 in the assay with HCV replicon 2B (read-out: 2B IC50, replicon 2B) was < 8.78.

For `COC(=O)NC(C(=O)N1[C@@H]2C[C@@H]2C[C@H]1c1ncc(-c2ccc3c(c2)cc2n3C(c3cnc(C4CC4)s3)Oc3cc(-c4cnc([C@@H]5CCCN5C(=O)[C@@H](NC(=O)OC)C(C)C)[nH]4)cc(F)c3-2)[nH]1)C1CCOC(C)(C)C1` (single isomer, unassigned) [Compound 314], the pIC50 in the assay with HCV replicon 1A was 11.59; in the assay on HCV replicon 2B (read-out: 2B IC50, replicon 2B), 11.70.

With `COC(=O)N[C@H](C(=O)N1CCC[C@H]1c1ncc(-c2cc(F)c3c(c2)OC(c2nc(C4CC4)cs2)n2c-3cc3cc(-c4cnc([C@@H]5CCCN5C(=O)[C@@H](NC(=O)OC)C(C)C)[nH]4)ccc32)[nH]1)C(C)C` (single isomer, unassigned) [Compound 11], the negative logarithm of the IC50 (pIC50) with HCV replicon 1AY93H is 7.84; in the assay on HCV replicon 2B (read-out: 2B IC50, replicon 2B), 8.22.

Compound `CCC(CC)c1ncc(C2Oc3cc(-c4cnc([C@@H]5CCCN5C(=O)[C@@H](NC(=O)OC)C(C)C)[nH]4)cc(F)c3-c3cc4cc(-c5cnc([C@@H]6CCCN6C(=O)[C@@H](NC(=O)OC)C(C)C)[nH]5)ccc4n32)s1` (single isomer, unassigned) [Compound 429] gave a pIC50 in the assay on HCV replicon 1A of 11.92.

As to `COC(=O)N[C@H](C(=O)N1CCC[C@H]1c1ncc(-c2cc(F)c3c(c2)OC(c2cnc(C4CCCC4)s2)n2c-3cc3cc(-c4cnc([C@@H]5CCCN5C(=O)[C@@H](NC(=O)OC)C(C)C)[nH]4)ccc32)[nH]1)C(C)C` (single isomer, unassigned) [Compound 26], the pIC50 is 9.90 with HCV replicon 1AY93H and 9.35 in the assay on HCV replicon 2B (read-out: 2B IC50, replicon 2B).

Take `COC(=O)N[C@H](C(=O)N1CCC[C@H]1c1ncc(-c2cc(F)c3c(c2)OC(c2cnc(C4CC4)s2)n2c-3c(F)c3cc(-c4cnc([C@@H]5CCCN5C(=O)[C@@H](NC(=O)OC)C(C)C)[nH]4)ccc32)[nH]1)C(C)C` (single isomer, unassigned) [Compound 22]: the pIC50 was 9.07 in the assay on HCV replicon 1AY93H and 9.36 in the assay with HCV replicon 2B (read-out: 2B IC50, replicon 2B).

For the compound `COC(=O)NC(C(=O)N1CCC[C@H]1c1ncc(-c2ccc3c(c2)cc2n3C(c3cnc(-c4ccc(F)cc4)s3)Oc3cc(-c4cnc([C@@H]5CCCN5C(=O)[C@@H](NC(=O)OC)C(C)C)[nH]4)cc(F)c3-2)[nH]1)C1C[C@@H](C)O[C@@H](C)C1` (single isomer, unassigned) [Compound 79], the pIC50 is 11.39 with HCV replicon 1AY93H and 11.70 in the assay on HCV replicon 2B (read-out: 2B IC50, replicon 2B).

In the case of `CCCc1ncc(C2Oc3cc(-c4cnc([C@@H]5CCCN5C(=O)[C@@H](NC(=O)OC)C(C)C)[nH]4)cc(C)c3-c3cc4cc(-c5cnc([C@@H]6CCCN6C(=O)C(NC(=O)OC)C6CCOC(C)(C)C6)[nH]5)ccc4n32)s1` (single isomer, unassigned) [Compound 226], in the assay on HCV replicon 2B, the IC50 came to 0.005 nM.

With `COC(=O)N[C@H](C(=O)N1CCC[C@H]1c1ncc(-c2cc(F)c3c(c2)OC(c2cncs2)n2c-3cc3cc(-c4cnc([C@@H]5CCCN5C(=O)[C@@H](NC(=O)OC)C(C)C)[nH]4)ccc32)[nH]1)C(C)C` (single isomer, unassigned) [Compound 1], the pIC50 in the assay on HCV replicon 2B (read-out: 2B IC50, replicon 2B) is 9.06.

As to `COC(=O)N[C@H](C(=O)N1CCC[C@H]1c1ncc(-c2cc(F)c3c(c2)OC(c2sc(C)nc2C(F)(F)F)n2c-3cc3cc(-c4cnc([C@@H]5CCCN5C(=O)[C@@H](NC(=O)OC)C(C)C)[nH]4)ccc32)[nH]1)C(C)C` (mixture of isomers) [Compound 426], in the assay with HCV replicon 1A (Hepatitis C virus), the pIC50 was 11.66.

`COC(=O)N[C@H](C(=O)N1CCC[C@H]1c1ncc(-c2cc(F)c3c(c2)OC(c2nnc(C)s2)n2c-3cc3cc(-c4cnc([C@@H]5CCCN5C(=O)[C@@H](NC(=O)OC)C(C)C)[nH]4)ccc32)[nH]1)C(C)C` (single isomer, unassigned) [Compound 5]: in the assay with HCV replicon 2B (read-out: 2B IC50, replicon 2B), the pIC50 is 8.51.

Take `COC(=O)N[C@H](C(=O)N1CCC[C@H]1c1ncc(-c2cc(F)c3c(c2)OC(c2cnc(C(C)C)s2)n2c-3cc3cc(-c4cnc([C@@H]5CCCN5C(=O)[C@@H](NC(=O)OC)C(C)C)[nH]4)ccc32)[nH]1)C(C)C` (single isomer, unassigned) [Compound 85]: the pIC50 was 11.85 in the assay on HCV replicon 1A (Hepatitis C virus) and 8.97 in the assay with HCV replicon 2B (read-out: 2B IC50, replicon 2B).

Regarding `COC(=O)N[C@H](C(=O)N1CCC[C@H]1c1ncc(-c2cc(F)c3c(c2)OC(c2cnc(-c4ncccn4)s2)n2c-3cc3cc(-c4cnc([C@@H]5CCCN5C(=O)[C@@H](NC(=O)OC)C(C)C)[nH]4)ccc32)[nH]1)C(C)C` (mixture of isomers) [Compound 411], in the assay on HCV replicon 1A (Hepatitis C virus), the pIC50 was 10.29.

For the compound `COC(=O)N[C@H](C(=O)N1CCC[C@H]1c1ncc(-c2cc(F)c3c(c2)OC(c2cnc(CC(C)C)s2)n2c-3cc3cc(-c4cnc([C@@H]5CCCN5C(=O)[C@@H](NC(=O)OC)C(C)C)[nH]4)ccc32)[nH]1)C(C)C` (single isomer, unassigned) [Compound 513], the pIC50 in the assay with HCV replicon 2B (replicon 2B, read-out: 2B IC50) is 8.92.

Regarding `COC(=O)NC(C(=O)N1[C@@H]2C[C@@H]2C[C@H]1c1ncc(-c2ccc3c(c2)cc2n3C(c3cnc(C(C)(C)C)s3)Oc3cc(-c4cnc([C@@H]5CCCN5C(=O)[C@@H](NC(=O)OC)C(C)C)[nH]4)cc(F)c3-2)[nH]1)C1CCOC(C)(C)C1` (single isomer, unassigned) [Compound 329], the pIC50 in the assay on HCV replicon 2B (read-out: 2B IC50, replicon 2B) was 9.80.

With `COC(=O)N[C@H](C(=O)N1CCC[C@H]1c1ncc(-c2cc(F)c3c(c2)OC(c2cnc(-c4ccncc4)s2)n2c-3cc3cc(-c4cnc([C@@H]5CCCN5C(=O)[C@@H](NC(=O)OC)C(C)C)[nH]4)ccc32)[nH]1)C(C)C` (single isomer, unassigned) [Compound 410], the pIC50 with HCV replicon 2B (read-out: 2B IC50, replicon 2B) was 8.82.

Regarding `COC(=O)N[C@H](C(=O)N1CCC[C@H]1c1ncc(-c2cc(F)c3c(c2)OC(c2sc(C)nc2C(F)(F)F)n2c-3cc3cc(-c4cnc([C@@H]5CCCN5C(=O)[C@@H](NC(=O)OC)C(C)C)[nH]4)ccc32)[nH]1)C(C)C` (single isomer, unassigned) [Compound 427], the pIC50 in the assay with HCV replicon 1A (Hepatitis C virus) was 11.62.

On to `COC(=O)NC(C(=O)N1[C@@H]2C[C@@H]2C[C@H]1c1ncc(-c2ccc3c(c2)cc2n3C(c3cnc(C(C)(C)C)s3)Oc3cc(-c4cnc([C@@H]5CCCN5C(=O)[C@@H](NC(=O)OC)C(C)C)[nH]4)cc(F)c3-2)[nH]1)C1CCOC(C)(C)C1` (single isomer, unassigned) [Compound 330], for which the pIC50 in the assay with HCV replicon 2B (read-out: 2B IC50, replicon 2B) was 10.80.

The values above are taken from US9555038B2, “Heterocycle-substituted tetracyclic compounds and methods of use thereof for the treatment of viral diseases” (Merck Sharp & Dohme Corp., priority 2013, dated 2017).
